Tests used:
Phytophthora infestans = type: cell-based; settings: different concentrations
[1] = test system: Erwinia chrysanthemi p.v. zea; assay: Effect of the antipathogenic protein on bacterial pathogens (growth inhibition); type: cell-based; settings: concentration where the bacteria growth is inhibit in a 50%; ± standard deviation
[2] = test system: Erwinia carotovorum p.v. carotovora; assay: as above; type: cell-based; settings: concentration where the bacteria growth is inhibit in a 50%; ± standard deviation
Pseudomonas avenae = assay: as above; type: cell-based; settings: concentration where the bacteria growth is inhibit in a 50%; ± standard deviation
[3] = test system: Pseudomonas syringae p.v. syringae; assay: as above; type: cell-based; settings: concentration where the bacteria growth is inhibit in a 50%; ± standard deviation
[4] = test system: Xanthomonas campestris p.v. phaseoli; assay: as above; type: cell-based; settings: concentration where the bacteria growth is inhibit in a 50%; ± standard deviation
Cándida albicans = settings: cited from earlier work
several plant pathogens = type: cell-based

SEQ ID No. 9: fragment of the antipathogenic protein NmDef-02 obtained by chemical synthesis (QAGWSHGDCRAQFKCKCIFEC; Nicotiana megalosiphon)
effect of fragments on the pathogen P. infestans (Phytophthora infestans; FIG. 6): control or inhibition of pathogen

NmDef-02: new anti-pathogenic small cysteine rich protein isolated from Nicotiana megalosiphon; also chemically synthesized without the signal peptide (RECKAQGRHTTCFRDANCVQVCEKQAGWSHGDCRAQFKCKCIFEC; Nicotiana megalosiphon)
IC50 [1]: 11 ± 8 µM | IC50 [2]: 86 ± 8 µM | IC50 (Pseudomonas avenae): 17 ± 5 µM | IC50 [3]: 26 ± 6 µM | inhibition of the growth of P. infestans (Phytophthora infestans; FIG. 4B): high levels of inhibition growth | IC50 [4]: 40 ± 3 µM

Rs-AFP2: plant anti-pathogenic protein from the literature (QKLCQRPSGTWSGVCGNNNACKNQCIRLEKARHGSCNYVFPAHKCICYFPC; UniProt P30230 30-80, looked up)
activity against Cándida albicans (Cándida albicans): active in micromolar concentrations

B1: NmDef-Plus: antipathogenic protein fused to the signal peptide of the Saccharomyces cerevisiae alpha factor, expressed in Pichia pastoris (protein)
chain: APVNTTTEDETAQIPAEAVIGYSDLEGDFDVAVLPFSNSTNNGLLFINTTIASIAAKEEGVSRECKAQGRHTTCFRDANCVQVCEKQAGWSHGDCRAQFKCKCIFEC
inhibition of the growth of plant pathogens (several plant pathogens): high levels of inhibition growth

— patent publication US9055744B2 (priority 2008, dated 2015)
